Values of other authors, collected in patent US6458821B1, “N-substituted azabicycloheptane derivatives, production and use thereof” (Abbott Laboratories, priority 1998, dated 2002).

Experiments:
D2 = D2 (Homo sapiens, UniProt P14416); details: D4/5-HT2A versus D2; background statement
dopamine D4 receptor = biological target: T1, dopamine D4 receptor (Homo sapiens, UniProt P21917); details: background statement on substance A
T1 sequence (P21917 1-419): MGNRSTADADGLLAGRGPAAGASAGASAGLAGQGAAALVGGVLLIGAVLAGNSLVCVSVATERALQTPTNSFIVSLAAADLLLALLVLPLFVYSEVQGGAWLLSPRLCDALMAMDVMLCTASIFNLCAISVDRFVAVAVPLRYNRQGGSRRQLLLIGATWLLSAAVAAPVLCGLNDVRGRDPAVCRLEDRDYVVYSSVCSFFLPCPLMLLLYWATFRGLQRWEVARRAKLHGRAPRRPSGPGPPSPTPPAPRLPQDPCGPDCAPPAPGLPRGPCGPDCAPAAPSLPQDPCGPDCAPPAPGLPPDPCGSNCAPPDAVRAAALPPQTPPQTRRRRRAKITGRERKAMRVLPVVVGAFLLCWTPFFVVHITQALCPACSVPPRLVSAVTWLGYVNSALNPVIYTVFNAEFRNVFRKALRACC

serotonin 2A receptor = serotonin 2A receptor (Homo sapiens, UniProt P28223); details: background statement on substance A
[1] = limits the dosage of substance A

Sequence of D2 (P14416 whole entry): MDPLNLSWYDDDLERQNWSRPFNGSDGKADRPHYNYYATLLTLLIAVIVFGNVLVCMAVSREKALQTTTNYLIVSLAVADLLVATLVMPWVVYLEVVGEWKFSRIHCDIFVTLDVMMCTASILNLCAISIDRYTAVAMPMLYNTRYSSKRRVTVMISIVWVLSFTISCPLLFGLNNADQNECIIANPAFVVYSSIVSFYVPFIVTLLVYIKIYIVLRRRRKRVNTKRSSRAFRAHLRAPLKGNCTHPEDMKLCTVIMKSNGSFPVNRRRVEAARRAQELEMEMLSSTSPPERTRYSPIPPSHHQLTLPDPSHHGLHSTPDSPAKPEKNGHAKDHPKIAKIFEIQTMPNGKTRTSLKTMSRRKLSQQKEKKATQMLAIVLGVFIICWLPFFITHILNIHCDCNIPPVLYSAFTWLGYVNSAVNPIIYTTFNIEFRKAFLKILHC
Sequence of serotonin 2A receptor (P28223 whole entry): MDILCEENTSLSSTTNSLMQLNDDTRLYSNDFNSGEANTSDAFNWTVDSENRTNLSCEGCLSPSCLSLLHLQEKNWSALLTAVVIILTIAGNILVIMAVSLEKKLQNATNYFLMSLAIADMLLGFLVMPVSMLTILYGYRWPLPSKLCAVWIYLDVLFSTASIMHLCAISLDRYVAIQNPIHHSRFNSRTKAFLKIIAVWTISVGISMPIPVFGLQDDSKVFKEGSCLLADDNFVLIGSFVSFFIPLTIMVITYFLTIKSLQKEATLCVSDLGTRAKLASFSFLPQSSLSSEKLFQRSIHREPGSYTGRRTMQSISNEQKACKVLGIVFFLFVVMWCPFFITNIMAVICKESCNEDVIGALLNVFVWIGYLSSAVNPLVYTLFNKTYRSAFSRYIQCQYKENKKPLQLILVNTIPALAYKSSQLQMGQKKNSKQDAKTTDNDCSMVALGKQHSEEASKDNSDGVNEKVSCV

O=c1[nH]c2ccccc2c(=O)n1CCN1C[C@H]2C[C@H](c3ccc(F)cc3)[C@H]2C1 [substance A, (+)-(1S,5R,6S)-exo-3-[2-[6-(4-fluorophenyl)-3-azabicyclo[3.2.0]-heptan-3-yl]ethyl]-1H,3H-quinazoline-2,4-dione]
selectivity versus D2 (D2): good selectivity | D4 affinity (dopamine D4 receptor): high | 5-HT2A affinity (serotonin 2A receptor): high | prolongations in the QT interval in the ECG [1]: prolongations which occur in the QT interval
